The values below come from patent US9149513B2, “Method and pharmacological composition for the diagnosis and treatment of male sub-fertility” (PERINESS LTD., priority 2006, dated 2015).

In the test the test system is intracellular sperm cell DNase. The test is described as follows: Inhibition of intracellular sperm cell DNase by citrate. Type of test: cell-based. The settings on record: 10 mM citrate, up to 8 hours, activity measured every hour. The protocol:
Sperm cells were subjected to three cycles of freezing and thawing and were then centrifuged for 10 min (27,000 g, 4° C.). […] 0.3 ml of the supernatant was added to 0.6 ml of DNase activity buffer and the mixture was measured in a spectrophotometer at 260 nm against a reference that contained only buffer and medium. Calibration curves were made using a commercial bovine DNase I. Sperm cell internal DNase was measured in Kunitz units. One Kunitz unit is defined as the amount of DNase that produces an increase of 1 O.D. per minute at 260 nm in a 1 cm pathlength at pH 5 at 25° C., in a reaction buffer that contains 5 mM MgSO4x7H2O, 0.1 M NaAcetate pH 5 and 4 mg % Calf thymus DNA. Plasma DNase was measured in Bartoov units. One Bartoov unit (BU) is defined as the amount of enzyme that produces a ΔA260 of 0.001 per min in 1 cm pathlength at pH 7.5 at 25° C., in a reaction buffer that contains 0.1M Tris, 10 mM CaCl2, 10 mM MnCl2 and 0.05 mg/ml calf thymus DNA.
In order to examine whether the DNase inhibitor citrate can inhibit intracellular sperm cell DNase, sperm cells were incubated with or without 10 mM citrate for up to 8 hours. The intracellular DNase activity was measured every hour and the sum of the DNase activity was calculated.

Take `O=C(O)CC(O)(CC(=O)O)C(=O)O` [citrate]: the “sum of intracellular DNase activity, % of control sperm cells” value is on record as 43%.
